{"source": "patent US20090258870A1", "about": "“NOVEL ANSAMITOCIN DERIVATIVES” (priority 2008, published 2009)", "key": {"U-937": {"tested_on": "U-937", "assay": "Growth inhibition of U-937 cells, WST-1 assay", "assay_type": "cell-based, human", "details": "for Antiproliferative activity IC50: U-937, lymphoma, 5 days, WST-1", "experimental": "(§1) For the detailed evaluation of their biological profile as anti-cancer agents, cultured human tumor cell lines were treated with the new ansamitocin derivatives. In particular, the 19-fluoro-20-demethoxyansamitocin P3 (F-A), 19-chloro-20-demethoxyansamitocin P3 (Cl-A), 19-bromo-20-demethoxyansamitocin P3 (Br-A), and the 20-demethoxy-19-vinylansamitocin P3 (VI) were tested for their inhibitory effect on cell growth of different cell lines, namely KB-3-1, U-937, PC-3, SK-OV-3, A-498, A-431, and A-549, in comparison to natural biosynthesis product Ansamitocin P-3 (AP-3). Growth inhibition was measured in microtiter plates. 60 μl of serial dilutions of the test compounds were added to aliquots of 120 μl of the suspended cells (50000/ml). After 5 days the growth was determined using a MTT assay, except for U-937, where the WST-1 assay from Roche was employed."}, "A-498": {"tested_on": "A-498", "assay": "Growth inhibition of A-498 cells, MTT assay", "assay_type": "cell-based, human", "details": "for Antiproliferative activity IC50: A-498, kidney carcinoma, 5 days, MTT", "experimental": "as §1"}, "SK-OV-3": {"tested_on": "SK-OV-3", "assay": "Growth inhibition of SK-OV-3 cells, MTT assay", "assay_type": "cell-based, human", "details": "for Antiproliferative activity IC50: SK-OV-3, ovarian carcinoma, 5 days, MTT", "experimental": "as §1"}, "A-549": {"tested_on": "A-549", "assay": "Growth inhibition of A-549 cells, MTT assay", "assay_type": "cell-based, human", "details": "for Antiproliferative activity IC50: A-549, lung carcinoma, 5 days, MTT", "experimental": "as §1"}, "KB-3-1": {"tested_on": "KB-3-1", "assay": "Growth inhibition of KB-3-1 cells, MTT assay", "assay_type": "cell-based, human", "details": "for Antiproliferative activity IC50: KB-3-1, cervix carcinoma, 5 days, MTT", "experimental": "as §1"}, "A-431": {"tested_on": "A-431", "assay": "Growth inhibition of A-431 cells, MTT assay", "assay_type": "cell-based, human", "details": "for Antiproliferative activity IC50: A-431, epidermoid carcinoma, 5 days, MTT", "experimental": "as §1"}, "PC-3": {"tested_on": "PC-3", "assay": "Growth inhibition of PC-3 cells, MTT assay", "assay_type": "cell-based, human", "details": "for Antiproliferative activity IC50: PC-3, prostate carcinoma, 5 days, MTT", "experimental": "as §1"}, "[1]": {"tested_on": "cultured human tumor cell lines", "assay": "Antiproliferative activity on cultured human tumor cell lines (panel, general statements)", "assay_type": "cell-based", "details": "in general, across the cell lines tested", "experimental": "as §1"}}, "data": [{"compound": "19-chloro-20-demethoxyansamitocin P3 [Cl-A]", "values": [{"measurement": "Antiproliferative activity IC50", "setting": "U-937", "result": 0.035, "unit": "ng/mL"}, {"measurement": "Antiproliferative activity IC50", "setting": "A-498", "result": 3, "unit": "ng/mL"}, {"measurement": "Antiproliferative activity IC50", "setting": "SK-OV-3", "result": 0.1, "unit": "ng/mL"}, {"measurement": "Antiproliferative activity IC50", "setting": "A-549", "result": 0.4, "unit": "ng/mL"}, {"measurement": "Antiproliferative activity IC50", "setting": "KB-3-1", "result": 0.35, "unit": "ng/mL"}, {"measurement": "Antiproliferative activity IC50", "setting": "A-431", "result": 0.15, "unit": "ng/mL"}, {"measurement": "Antiproliferative activity IC50", "setting": "PC-3", "result": 0.12, "unit": "ng/mL"}]}, {"compound": "19-fluoro-20-demethoxyansamitocin P3 [F-A]", "values": [{"measurement": "Antiproliferative activity IC50", "setting": "U-937", "result": 0.01, "unit": "ng/mL"}, {"measurement": "relative activity among the compounds tested", "setting": "[1]", "result": "most active"}, {"measurement": "Antiproliferative activity IC50", "setting": "A-498", "result": 2, "unit": "ng/mL"}, {"measurement": "Antiproliferative activity IC50", "setting": "SK-OV-3", "result": 0.035, "unit": "ng/mL"}, {"measurement": "Antiproliferative activity IC50", "setting": "A-549", "result": 0.11, "unit": "ng/mL"}, {"measurement": "Antiproliferative activity IC50", "setting": "KB-3-1", "result": 0.18, "unit": "ng/mL"}, {"measurement": "Antiproliferative activity IC50", "setting": "A-431", "result": 0.04, "unit": "ng/mL"}, {"measurement": "Antiproliferative activity IC50", "setting": "PC-3", "result": 0.035, "unit": "ng/mL"}]}, {"compound": "C=Cc1ccc2cc1N(C)C(=O)CC(OC(=O)C(C)C)C1(C)OC1C(C)C1CC(O)(NC(=O)O1)C(OC)C=CC=C(C)C2", "note": "(stereo not shown) [20-demethoxy-19-vinylansamitocin P3]", "values": [{"measurement": "relative activity among the compounds tested", "setting": "[1]", "result": "most active"}]}, {"compound": "COc1cc2cc(c1Cl)N(C)C(=O)C[C@H](OC(=O)C(C)C)[C@]1(C)O[C@@H]1[C@H](C)[C@@H]1C[C@@](O)(NC(=O)O1)[C@H](OC)/C=C/C=C(\\C)C2", "note": "[AP-3, Ansamitocin P-3, reference compound]", "values": [{"measurement": "Antiproliferative activity IC50", "setting": "U-937", "result": 0.0035, "unit": "ng/mL"}, {"measurement": "Antiproliferative activity IC50", "setting": "A-498", "result": 1.1, "unit": "ng/mL"}, {"measurement": "Antiproliferative activity IC50", "setting": "SK-OV-3", "result": 0.03, "unit": "ng/mL"}, {"measurement": "Antiproliferative activity IC50", "setting": "A-549", "result": 0.1, "unit": "ng/mL"}, {"measurement": "Antiproliferative activity IC50", "setting": "KB-3-1", "result": 0.11, "unit": "ng/mL"}, {"measurement": "Antiproliferative activity IC50", "setting": "A-431", "result": 0.05, "unit": "ng/mL"}, {"measurement": "Antiproliferative activity IC50", "setting": "PC-3", "result": 0.035, "unit": "ng/mL"}]}, {"compound": "CO[C@@H]1/C=C/C=C(\\C)Cc2ccc(Br)c(c2)N(C)C(=O)C[C@H](OC(=O)C(C)C)[C@]2(C)O[C@H]2[C@H](C)[C@@H]2C[C@@]1(O)NC(=O)O2", "note": "[Br-A, 19-bromo-20-demethoxyansamitocin P3]", "values": [{"measurement": "Antiproliferative activity IC50", "setting": "U-937", "result": 0.03, "unit": "ng/mL"}, {"measurement": "Antiproliferative activity IC50", "setting": "A-498", "result": 4, "unit": "ng/mL"}, {"measurement": "Antiproliferative activity IC50", "setting": "SK-OV-3", "result": 0.05, "unit": "ng/mL"}, {"measurement": "Antiproliferative activity IC50", "setting": "A-549", "result": 0.3, "unit": "ng/mL"}, {"measurement": "Antiproliferative activity IC50", "setting": "KB-3-1", "result": 0.3, "unit": "ng/mL"}, {"measurement": "Antiproliferative activity IC50", "setting": "A-431", "result": 0.1, "unit": "ng/mL"}, {"measurement": "Antiproliferative activity IC50", "setting": "PC-3", "result": 0.1, "unit": "ng/mL"}]}, {"compound": "C=Cc1ccc2cc1N(C)C(=O)C[C@H](OC(=O)C(C)C)[C@]1(C)O[C@H]1[C@H](C)[C@@H]1C[C@@](O)(NC(=O)O1)[C@H](OC)/C=C/C=C(\\C)C2", "note": "[VI, 20-demethoxy-19-vinylansamitocin P3]", "values": [{"measurement": "IC50", "setting": "U-937; Homo sapiens, U-937, 120 h, read-out: Antiproliferative activity IC50", "result": 0.05, "unit": "ng/mL"}, {"measurement": "IC50", "setting": "A-498; Homo sapiens, A498, 120 h, read-out: Antiproliferative activity IC50", "result": 2, "unit": "ng/mL"}, {"measurement": "IC50", "setting": "SK-OV-3; Homo sapiens, SK-OV-3, 120 h, read-out: Antiproliferative activity IC50", "result": 0.04, "unit": "ng/mL"}, {"measurement": "IC50", "setting": "A-549; Homo sapiens, A549, 120 h, read-out: Antiproliferative activity IC50", "result": 0.14, "unit": "ng/mL"}, {"measurement": "IC50", "setting": "KB-3-1; Homo sapiens, KB 3-1, 120 h, read-out: Antiproliferative activity IC50", "result": 0.4, "unit": "ng/mL"}, {"measurement": "IC50", "setting": "A-431; Homo sapiens, A-431, 120 h, read-out: Antiproliferative activity IC50", "result": 0.04, "unit": "ng/mL"}, {"measurement": "IC50", "setting": "PC-3; Homo sapiens, PC-3, 120 h, read-out: Antiproliferative activity IC50", "result": 0.1, "unit": "ng/mL"}]}]}
